Measured values published in patent US9556165B2 (priority 2012, dated 2017).
In brackets after ≈: the same amount, converted by molar mass.

Tests used:
Type in all cases: cell-based
C. perfringens DSM756 = test: microbe, parasite or virus in culture
strain 20 = test: MIC determination, broth microdilution (CLSI)
P. aeruginosa PAO1 = test: MIC determination, broth microdilution (CLSI)
K. pneumoniae 60 = test: MIC determination, broth microdilution (CLSI)
M. morganii 126/3048 = test: MIC determination, broth microdilution (CLSI)
S. maltophilia ICB7569 = test: MIC determination, broth microdilution (CLSI)
[1] = system: P. aeruginosa 2297-con (AmpC derepressed); test: MIC determination, broth microdilution (CLSI); conditions: strain 8
strain 21 = test: MIC determination, broth microdilution (CLSI)
E. coli J62-TEM-3 = test: MIC determination, broth microdilution (CLSI)
S. aureus 133 = test: MIC determination, broth microdilution (CLSI); conditions: for MIC: Staphylococcus aureus, 133, strain 11, read-out: strain 11 MIC
H. influenzae ATCC 49247 = test: MIC determination, broth microdilution (CLSI)
A. baumannii ATCC15308 = test: MIC determination, broth microdilution (CLSI)
strain 19 = test: MIC determination, broth microdilution (CLSI)
E. coli ATCC25922 = test: MIC determination, broth microdilution (CLSI)
C. freundii K21/3034 = test: MIC determination, broth microdilution (CLSI)
[2] = system: P. aeruginosa 2297 (AmpC wt); test: MIC determination, broth microdilution (CLSI); conditions: for MIC: Pseudomonas aeruginosa, strain 7
M. catarrhalis ICB489 = test: MIC determination, broth microdilution (CLSI)
E. cloacae 34654 = test: MIC determination, broth microdilution (CLSI)
E. coli J62 = test: MIC determination, broth microdilution (CLSI)
B. fragilis 6688 = test: MIC determination, broth microdilution (CLSI)
S. pneumoniae 113 = test: MIC determination, broth microdilution (CLSI); conditions: Streptococcus pneumoniae, 113, strain 14; read-out: strain 14 MIC

CC1(C)[C@H](NC(=O)/C(=N\OC(COc2ccc(C(=N)N)c(O)c2)C(=O)O)c2csc(N)n2)C(=O)N1OS(=O)(=O)O (mixture of isomers) [Example 34B, (2S and 2R)-2-({[(1Z)-1-(2-Amino-1,3-thiazol-4-yl)-2-{[(3S)-2,2-dimethyl-4-oxo-1-(sulfo-oxy)azetidin-3-yl]amino}-2-oxoethylidene]amino}oxy)-3-(4-carbamimidoyl-3-hydroxyphenoxy)propanoic acid]
strain 16 MIC (C. perfringens DSM756): 32 µg/mL
strain 20 MIC (strain 20): 4 µg/mL
strain 6 MIC (P. aeruginosa PAO1): 32 µg/mL
strain 2 MIC (K. pneumoniae 60): 8 µg/mL
strain 5 MIC (M. morganii 126/3048): 4 µg/mL
strain 10 MIC (S. maltophilia ICB7569): 32 µg/mL
strain 8 MIC [1]: 32 µg/mL
strain 21 MIC (strain 21): 8 µg/mL
strain 18 MIC (E. coli J62-TEM-3): 32 µg/mL
strain 11 MIC (S. aureus 133): 0.25 µg/mL
strain 13 MIC (H. influenzae ATCC 49247): 8 µg/mL
strain 9 MIC (A. baumannii ATCC15308): 32 µg/mL
strain 19 MIC (strain 19): 4 µg/mL
strain 1 MIC (E. coli ATCC25922): 8 µg/mL
strain 4 MIC (C. freundii K21/3034): 8 µg/mL
strain 7 MIC [2]: 32 µg/mL
strain 12 MIC (M. catarrhalis ICB489): 0.5 µg/mL
strain 3 MIC (E. cloacae 34654): 4 µg/mL
strain 17 MIC (E. coli J62): 16 µg/mL

CC1(C)[C@H](NC(=O)/C(=N\OC(COc2ccc(C(=N)N)nc2)C(=O)O)c2csc(N)n2)C(=O)N1OS(=O)(=O)O (mixture of isomers) [Example 36A, (2S and 2R)-2-({[(1Z)-1-(2-Amino-1,3-thiazol-4-yl)-2-{[(3S)-2,2-dimethyl-4-oxo-1-(sulfo-oxy)azetidin-3-yl]amino}-2-oxoethylidene]amino}oxy)-3-[(6-carbamimidoylpyridin-3-yl)oxy]propanoic acid]
strain 16 MIC (C. perfringens DSM756): 2 µg/mL
strain 20 MIC (strain 20): ≦0.063 mg/L
strain 6 MIC (P. aeruginosa PAO1): 4 µg/mL
strain 2 MIC (K. pneumoniae 60): ≦0.063 mg/L
strain 5 MIC (M. morganii 126/3048): ≦0.063 mg/L
strain 10 MIC (S. maltophilia ICB7569): 2 µg/mL
strain 8 MIC [1]: 4 µg/mL
strain 21 MIC (strain 21): 0.125 µg/mL
strain 18 MIC (E. coli J62-TEM-3): 8 µg/mL
MIC (S. aureus 133): ≤ 0.063 µg/mL
strain 15 MIC (B. fragilis 6688): 8 µg/mL
strain 13 MIC (H. influenzae ATCC 49247): 0.5 µg/mL
strain 9 MIC (A. baumannii ATCC15308): 4 µg/mL
strain 19 MIC (strain 19): 0.125 µg/mL
strain 1 MIC (E. coli ATCC25922): 0.125 µg/mL
strain 4 MIC (C. freundii K21/3034): 0.125 µg/mL
MIC [2]: 4 µg/mL
strain 12 MIC (M. catarrhalis ICB489): ≦0.063 mg/L
strain 3 MIC (E. cloacae 34654): ≦0.063 mg/L
strain 17 MIC (E. coli J62): 0.125 µg/mL

CC1(C)[C@H](NC(=O)/C(=N\OC(COc2ccc(C(=N)N)nc2)C(=O)O)c2csc(N)n2)C(=O)N1OS(=O)(=O)O (mixture of isomers) [Example 36B, (2S and 2R)-2-({[(1Z)-1-(2-Amino-1,3-thiazol-4-yl)-2-{[(3S)-2,2-dimethyl-4-oxo-1-(sulfo-oxy)azetidin-3-yl]amino}-2-oxoethylidene]amino}oxy)-3-[(6-carbamimidoylpyridin-3-yl)oxy]propanoic acid]
strain 16 MIC (C. perfringens DSM756): 32 µg/mL
strain 20 MIC (strain 20): 2 µg/mL
strain 6 MIC (P. aeruginosa PAO1): 16 µg/mL
strain 2 MIC (K. pneumoniae 60): 1 µg/mL
strain 5 MIC (M. morganii 126/3048): 2 µg/mL
strain 10 MIC (S. maltophilia ICB7569): 16 µg/mL
strain 8 MIC [1]: 32 µg/mL
strain 21 MIC (strain 21): 2 µg/mL
strain 18 MIC (E. coli J62-TEM-3): 32 µg/mL
strain 11 MIC (S. aureus 133): 0.125 µg/mL
strain 15 MIC (B. fragilis 6688): 32 µg/mL
strain 13 MIC (H. influenzae ATCC 49247): 4 µg/mL
strain 9 MIC (A. baumannii ATCC15308): 32 µg/mL
strain 19 MIC (strain 19): 2 µg/mL
strain 1 MIC (E. coli ATCC25922): 2 µg/mL
strain 4 MIC (C. freundii K21/3034): 0.5 µg/mL
strain 12 MIC (M. catarrhalis ICB489): 0.5 µg/mL
strain 3 MIC (E. cloacae 34654): 2 µg/mL
strain 17 MIC (E. coli J62): 4 µg/mL

C[C@H]1[C@H](NC(=O)/C(=N\OCCOc2ccc(C(=N)N)cc2)c2csc(N)n2)C(=O)N1OCS(=O)(=O)O [Example 12, {[(2S,3S)-3-{[(2Z)-2-(2-Amino-1,3-thiazol-4-yl)-2-{[2-(4-carbamimidoylphenoxy)ethoxy]imino}acetyl]amino}-2-methyl-4-oxoazetidin-1-yl]oxy}methanesulfonic acid]
MIC (C. perfringens DSM756; Clostridium perfringens, DSM756, read-out: strain 16 MIC, strain 16): 16 µg/mL (≈ 29.5 µM)
MIC (strain 20): 0.25 µg/mL (≈ 0.462 µM)
MIC (P. aeruginosa PAO1; Pseudomonas aeruginosa, PAO1, strain 6): 4 µg/mL (≈ 7.39 µM)
MIC (K. pneumoniae 60; Klebsiella pneumoniae, 60, strain 2): 0.25 µg/mL (≈ 0.462 µM)
MIC (M. morganii 126/3048; Morganella morganii, 126/3048, strain 5): 0.25 µg/mL (≈ 0.462 µM)
MIC (S. maltophilia ICB7569; Stenotrophomonas maltophilia, ICB7569, strain 10): 8 µg/mL (≈ 14.8 µM)
MIC (strain 21): 0.25 µg/mL (≈ 0.462 µM)
MIC (S. pneumoniae 113): 32 µg/mL (≈ 59.1 µM)
MIC (E. coli J62-TEM-3; Escherichia coli, J62TEM3, read-out: strain 18 MIC, strain 18): 8 µg/mL (≈ 14.8 µM)
MIC (S. aureus 133): 0.125 µg/mL (≈ 0.231 µM)
MIC (B. fragilis 6688; Bacteroides fragilis, 6688, strain 15, read-out: strain 15 MIC): 8 µg/mL (≈ 14.8 µM)
MIC (H. influenzae ATCC 49247; Haemophilus influenzae, ATCC49247, strain 13, read-out: strain 13 MIC): ≤ 0.063 µg/mL
MIC (A. baumannii ATCC15308; Acinetobacter baumannii, ATCC15308, strain 9): 4 µg/mL (≈ 7.39 µM)
MIC (strain 19): 0.5 µg/mL (≈ 0.923 µM)
MIC (E. coli ATCC25922; Escherichia coli, ATCC25922, strain 1): 0.5 µg/mL (≈ 0.923 µM)
MIC (C. freundii K21/3034; Citrobacter freundii, K21/3034, strain 4): 0.25 µg/mL (≈ 0.462 µM)
MIC [2]: 8 µg/mL (≈ 14.8 µM)
MIC (M. catarrhalis ICB489; Moraxella catarrhalis, ICB489, strain 12): 0.25 µg/mL (≈ 0.462 µM)
MIC (E. cloacae 34654; Enterobacter cloacae, 34654, strain 3): 0.5 µg/mL (≈ 0.923 µM)
MIC (E. coli J62; Escherichia coli, J62, strain 17, read-out: strain 17 MIC): 0.5 µg/mL (≈ 0.923 µM)
